Measured values taken from patent US8697407B2, “Compositions and methods for inhibiting MMSET” (The Regents of The University of Michigan, priority 2010, dated 2014).
pIC50: −log10 of the molar value. “Also recorded” adds a separate entry of the source. Read-outs that look alike come from different tables or passages of the source.

Assays:
DU145 cells [1] = assay: WST-1 cell viability assay; assay type: cell-based
Procedure: In order to test the activity of MMSET inhibitors on cell viability, a WST-1 cell viability assay (Roche) was performed. The aggressive prostate cell line DU145 was treated with different doses of small molecules dissolved in DMSO for 96 hours before performing the WST-1 assay according to manufacturer's protocol. Each experiment was performed 8 times and absorbance was measured at 450 nm.

xenograft tumors = assay: Xenograft tumors; conditions: in vivo
[2] = test system: histone H3 methylation in DU145 cells; assay: Immunoblot analyses of histone H3 methylation modifications; assay type: cell-based
Procedure: DU145 cells were incubated with multiple doses of small molecule inhibitors for 96 hours or were subjected to siRNA-mediated MMSET knockdown as described herein (e.g., using sh1 GGUCCAAAGUGUCGGGUUA or sh2 GUCAGUGGAGGAGCGGAA). Cells were homogenized in NP40 lysis buffer (50 mM Tris-HCl, 1% NP40, pH 7.4, Sigma, St. Louis, Mo.) with Complete proteinase inhibitor mixture (Roche, Indianapolis, Ind.). Ten micrograms of each protein extract were boiled in sample buffer, separated by SDS-PAGE, and transferred onto Polyvinylidene Difluoride membrane (GE Healthcare). The membrane was incubated for one hour in blocking buffer and incubated overnight at 4° C. with the following antibodies: anti-mono, di, and trimethylated H3-27, anti-di and trimethylated H3-k36, and anti-trimethylated H3-K9. Following a wash with TBS-T, the blot was incubated with horseradish peroxidase-conjugated secondary antibody. Signals were visualized by enhanced chemiluminescence as described by the manufacturer (GE Healthcare). The blots were re-probed with anti-H3 and β-actin for confirmation of equal loading.

[3] = test system: translocation positive MM cell lines; assay: Specificity in MM cell lines; assay type: cell-based
multiple cancers = assay: Cell viability (FIGS. 11-26); assay type: cell-based
DU145 cells [4] = assay: Basement membrane matrix invasion assay; assay type: cell-based; conditions: 48 hours
Procedure: DU145 cells were used for invasion assays. In some experiments, MMSET knockdown was performed by transfecting cells with two different MMSET-specific siRNAs. Forty-eight hours post-transfection, cells were seeded onto the basement membrane matrix (EC matrix, Chemicon, Temecula, Calif.) present in the insert of a 24-well culture plate. In some experiments, MMSET was inhibited using a small molecule inhibitor (MCTP39). Fetal bovine serum was added to the lower chamber as a chemoattractant with or without 2 doses of small molecule inhibitors. After 48 hours, the non-invading cells and EC matrix were gently removed with a cotton swab. Invasive cells located on the lower side of the chamber were measured colorimetrically by treating with 150 μl of 10% acetic acid and the absorbance measured at 560 nm using a spectrophotometer.

Question: Which results are given for NNc1nc2ccccc2nc1S [MCTP39, 3-hydrazinylquinoxaline-2-thiol]?
Answer: proliferation of DU145 cells (DU145 cells [1]): affected proliferation and invasion of DU145 cells even at very low concentration; pIC50 (DU145 cells [1]; Homo sapiens, DU-145, 96 hours, WST-1): > 5.52; tumor size / tumor volume in xenograft tumors (xenograft tumors): decreased; also recorded: reduces tumor volume; H3K27 trimethylation [2]: dose-dependent decreased; H3K36 dimethylation [2]: dose-dependent decreased; H3K36 trimethylation [2]: dose-dependent decreased; H3K27 dimethylation ([2]; 96 hours): dose-dependent decreased; H3K27 trimethylation ([2]; listed as N39): reduced; H3K36 dimethylation ([2]; listed as N39): reduced; H3K36 trimethylation ([2]; listed as N39): reduced; specificity toward translocation positive MM cell lines [3]: shows specificity toward translocation positive MM cell lines; cell viability (multiple cancers): decreased; invasion of DU145 cells (DU145 cells [4]): affected proliferation and invasion of DU145 cells even at very low concentration
